Measurements published in ChEMBL document CHEMBL4842365, “Exploring the dNTP -binding site of HIV-1 reverse transcriptase for inhibitor design” (Eur J Med Chem, 2021).
Activity calls are given as the source filed them. The calls are words filed in the database; no cut-off is given here.

Assays:
Conditions in all cases: time 25-30 min
[1] = molecular target: Human immunodeficiency virus type 1 reverse transcriptase (Human immunodeficiency virus 1) (UniProt Q72547); assay: Inhibition of HIV-1 reverse transcriptase using 5'-Cy5CAGGAAACAGCTATGAC/3'-GTCCTTTGTCGATACTGTTTTTTT-5' as primer/template at 10 mM preincubated for 20 min followed by dATP addition measured after 5 to 10 mins by gel electrophoresis analysis
[2] = molecular target: Human immunodeficiency virus type 1 reverse transcriptase (Human immunodeficiency virus 1) (UniProt Q72547); assay: Inhibition of HIV-1 reverse transcriptase using 5'-Cy5CAGGAAACAGCTATGAC/3'-GTCCTTTGTCGATACTGTTTTTTT-5' as primer/template at 1 mM preincubated for 20 min followed by dATP addition measured after 5 to 10 mins by gel electrophoresis analysis
[3] = molecular target: Human immunodeficiency virus type 1 reverse transcriptase (Human immunodeficiency virus 1) (UniProt Q72547); assay: Inhibition of HIV-1 reverse transcriptase using 5'-Cy5CAGGAAACAGCTATGAC/3'-GTCCTTTGTCGATACTGTTTTTTT-5' as primer/template at 5 mM preincubated for 20 min followed by dATP addition measured after 5 to 10 mins by gel electrophoresis analysis

Row | inhibition [1] | inhibition [2] | inhibition [3] | Compound
1 | inactive | inactive |  | Nc1ncnc2c1ncn2CCN[C@H](CP(=O)(O)O)C(=O)O
2 | Active | inactive | Active | Nc1ncnc2c1ncn2CCOC(CP(=O)(O)O)C(=O)O (racemic)
3 | Active | inactive | Active | Nc1ncnc2c1ncn2CCCOC(CP(=O)(O)O)C(=O)O (centres undefined)
4 | Active | inactive | Active | Nc1ncnc2c1ncn2CCN[C@@H](CO)C(=O)NP(=O)(O)O
5 | Active | inactive | Active | C[C@H](Cn1cnc2c(N)ncnc21)N(CCP(=O)(O)O)CC(=O)O
6 | inactive | inactive |  | Nc1ncnc2c1ncn2CCN[C@@H](CP(=O)(O)O)C(=O)O
7 | Active | inactive | Active | Nc1ncnc2c1ncn2CCCN[C@H](CP(=O)(O)O)C(=O)O
